Literature values, collected in patent US20110097427A1, “Molecular Targets and Dietary Modulators of Exercise-Induced Muscle Damage” (priority 2009, published 2011).

Conditions: Risérus et al., 2008, Diabetes 57: 332-339

## Cc1cc(SCc2sc(-c3ccc(C(F)(F)F)cc3)nc2C)ccc1OCC(=O)O [GW501516]
  urinary isoprostanes: reduced
